Assay results published in patent EP0671947B1, “COMPOSITIONS FOR ELICITING CYTOTOXIC T-[…] AGAINST VIRUSES” (BOARD OF REGENTS THE UNIVERSITY OF TEXAS SYSTEM, priority 1991, dated 1993).
Values joined by “and” are separate entries in the source; they are usually repeats but may differ in a detail not shown here. Identical values can stand only once. “Also recorded” adds a separate entry of the source. Like-named read-outs stand apart in the source and are kept apart here. Ends that are not written are not given here.

Tests used:
BALB/c mice = experiment: ELISA for anti-peptide antibody response after immunization; details: high molecular weight forms
[1] = format: in vivo, Balb/c mice
[2] = system: HIV-1 infected CCRF-CEM and uninfected Molt-4 cells; details: cited from earlier work
PLN cells = experiment: In vitro proliferation of PLN cells (3H-TdR incorporation) after footpad immunization; format: in vivo, B6C3 F1 mice; details: disulfide (di-Cys) polymeric form; summary of mouse studies
Protocol: The high molecular weight, multimeric di-Cys peptide polymeric forms of the peptides described in EXAMPLE 1 were assayed for their elicitation of a T cell proliferative response as in Millich et al. (1985).
FIGURES 2-5 illustrate the peptide-specific ^3H-TdR incorporation for T cell responses (delta cpm) in mice with differing major histocompatibility (MHC) haplotypes, B6C3 F1 (C57B1/6xC^3H/HcJ) mice (FIGURES 2 and 4) and (A.SWxBALB/c) F1 mice (FIGURES 3 and 5), for all of the synthetic peptides. The ^3H-TdR incorporation values represent the difference between the radioactivity values obtained in wells containing antigen and in control wells without added antigen. The non-specific proliferation of PLN cells was determined by including an unrelated peptide in the assays, shown as a horizontal bar for each peptide.

PBMC = PBMC proliferation after immunization with a mixture of eight synthetic peptides; format: in vivo, rhesus monkeys; design: key to T-cell Proliferation Responses, Rhesus Monkey #7 / T-cell Proliferation Responses, Rhesus Monkey #23 / T-cell Proliferation Responses, Rhesus Monkey #283C: (-), no detectable response; (1+), poor response; (2+), good response; (3+), better response; (4+, 6+), best response; (4+, 6+), best response; details: for T-cell Proliferation Responses, Rhesus Monkey #7 / T-cell Proliferation Responses, Rhesus Monkey #23 / T-cell Proliferation Responses, Rhesus Monkey #283C: PBMC response to the individual antigen after immunization with mixture of eight peptides; for proliferative responses of PBMCs (in words): three rhesus monkeys immunized with mixture of eight peptides
Protocol: In the present studies, three rhesus monkeys (#7, #23 and #283C) were immunized subcutaneously with 1 ml (0.1 ml/site) of a mixture of eight synthetic peptides (300 µg of each peptide in sterile water) emulsified in complete Freund's adjuvant at 1:1 ratio. […] At 3 and 7 weeks after the primary immunization, two booster injections of the peptide mixture (150 µg of each peptide in sterile water) emulsified in incomplete Freund's adjuvant were given to each monkey. Monkey #7 was terminated after 34 weeks, for health reasons unrelated to the study, while the remaining two monkeys (#283C and #23) received one additional booster injection at 25 weeks.
At two week intervals following the first immunization of each animal, 15 ml of whole heparinized blood was collected by venous puncture. The peripheral blood mononuclear cells (PBMC) were separated by standard ficoll-hypaque centrifugation and employed in proliferation assays. The PBMCs were monitored every two weeks for a period of 32 weeks for proliferative responses against individual peptides and recombinant gp160.

HIV-1 IIIB = experiment: Effect of V3 loop peptides on HIV-1 IIIB infection of human cells (RT activity); format: cell-based; details: for RT ACTIVITY (CPM): No Peptide 7528, Uninfected cells 558
Source text: As detailed in TABLE 11A, these peptides include D23, D24, D25, D26, D30, D35, D38, D39, D40 and D44, which reflect a variety of strains such as mn, rf, wmj-3, sc, z6, eli, mn (y-l) and mn (y-p). However, it is important to note that this assay was confined specifically to inhibiting the infection of the heterologous strain HIV-1 IIIB. […]

[3] = system: envelope protein gp160 of HIV-1 IIIB, mn or rf strains; format: cell-based
HIV-1 [4] = format: cell-based, HIV-1 IIIB
HIV-1 [5] = format: cell-based; details: various concentrations, seven days after infection
HIV-1 [6] = format: cell-based; details: seven days after infection
3A9 = format: in vivo, Balb/c mice
HIV-1 [7] = format: cell-based; details: various concentrations, seven days after infection; remark: listed apart in the source
[8] = 1 µg/ml, RT activity in culture supernatant after 9 days, IIIB strain

CRIKQIINMWQGVGKAMYA [Peptide 65]
anti-peptide antibody titers (in words) (BALB/c mice): high antibody titers

CRIKQIINMWQGVGKAMYA [Peptide 122]
CTL-inducing activity ([1]; helper T-cell peptide injected alone): lacked CTL-inducing activity

CTRPNNNTRKSIRIQRGPGRAFVTIGKIGNMRQAHC [reference compound]
inhibition of syncytium formation ([2]; 100 µM (approximately 300 µg/ml)): 30-60%

FEPIPIHYCAFPGF [Peptide 114]
anti-peptide antibody titers (in words) (BALB/c mice): high antibody titers

FLGFLGAAGSTMGAASLTLTVQANQ [Peptide 63]
T cell response directed against both the corresponding peptide and native gp160 (PLN cells): strong T cell response
T-cell Proliferation Responses, Rhesus Monkey #7 (PBMC): 2+
T-cell Proliferation Responses, Rhesus Monkey #23 (PBMC): 4+
T-cell Proliferation Responses, Rhesus Monkey #283C (PBMC): 3+
proliferative responses of PBMCs (in words) (PBMC): good proliferative responses
anti-peptide antibody titers (in words) (BALB/c mice): very low to negligible; also recorded: do not stimulate anti-peptide antibody production

GIAIGPGRTLYAREK [Peptide D27]
RT ACTIVITY (CPM) (HIV-1 IIIB): 7657 CPM

GIHFGPGQALYTTGI [Peptide D33]
RT ACTIVITY (CPM) (HIV-1 IIIB): 8959 CPM

GTGPCTNVSTVQC [Peptide 116]
T-cell Proliferation Responses, Rhesus Monkey #7 (PBMC): 1+
T-cell Proliferation Responses, Rhesus Monkey #23 (PBMC): 3+
T-cell Proliferation Responses, Rhesus Monkey #283C (PBMC): 2+
proliferative responses of PBMCs (in words) (PBMC): weak responses
anti-peptide antibody titers (in words) (BALB/c mice): very low to negligible

GVPVWKEATTLFC [Peptide 105]
proliferative responses of PBMCs (in words) (PBMC): A significant response was not detected

HGEFAPGNYPALWSYA [Peptide B105, reference compound]
in vivo CTL response (P815; […], same immunization protocol): successfully generated

HIGPGRAFYTTKN [Peptide H13N]
syncytia [3]: no syncytia were observed
inhibition of HIV-1 infection of primary human T cells (HIV-1 [4]; [8]): > 60%

KKFNGTGPCTN [Peptide 115]
anti-peptide antibody titers (in words) (BALB/c mice): high antibody titers

LWDQSLKPCVKLT [Peptide 111]
T-cell Proliferation Responses, Rhesus Monkey #7 (PBMC): 3+
T-cell Proliferation Responses, Rhesus Monkey #23 (PBMC): 2+
T-cell Proliferation Responses, Rhesus Monkey #283C (PBMC): 3+
proliferative responses of PBMCs (in words) (PBMC): good proliferative responses
anti-peptide antibody titers (in words) (BALB/c mice): very low to negligible

NNTRKSIRIQRGPGRAFVTIGKIG [Peptide N24G]
concentration required for inhibition of syncytium formation ([2]; to achieve the same level of inhibition (30-60%)): 300 µM
inhibition of HIV-1 infection of primary human T cells (HIV-1 [4]; [8]): 92%

NNTRKSITKGPGRVIYATGQIIGD [Peptide D26]
RT ACTIVITY (CPM) (HIV-1 IIIB): 2093 CPM

RIHIGPGARFLTTKN [Peptide D39]
RT ACTIVITY (CPM) (HIV-1 IIIB): 1978 CPM

RIHIGPGRAFFTTKN [Peptide D40]
RT ACTIVITY (CPM) (HIV-1 IIIB): 2805 CPM

RIHIGPGRAFYTTKN [Peptide D24]
RT ACTIVITY (CPM) (HIV-1 IIIB): 5000 CPM

RIQRGPGRAFVTIGK [Peptide R15K]
HIV-1 infection of H9 cells, reverse transcriptase activity in culture supernatant (HIV-1 [5]): inhibits HIV-1 infection
% RT INHIBITION (HIV-1 IIIB): 73.2%
RT ACTIVITY (CPM) (HIV-1 IIIB): 2021 CPM
cytotoxicity after pre-treatment of effector cells with anti-CD4 MAbs plus complement, or complement alone (P815; monomeric peptide): no significant effect
Lysis of MHC-matched target cells without peptide pre-treatment (P815) (P815; mouse, in vivo): not observed
cytotoxicity after treatment of CTL effectors with anti-CD8 MAbs and rabbit complement (P815; mouse, in vivo): abolished the cytotoxicity
lysis of P815 cells infected with recombinant vaccinia virus expressing HIV gp160 (VPE16) (P815; mouse, in vivo): specifically lysed
mice with CTLs specifically lysing P815 pre-incubated with the peptide (P815; mouse, in vivo): 8 of 12 and 13 of 13 and 6 of 8
inhibitory activity retained, of control untreated peptide (bovine, fetal calf serum, 24 h): 50%
time for which full strength inhibitory activity was retained (incubation in fetal calf serum at 37°C, tested at 1 µg/ml on MT-4 cells): up to 4 hours
syncytia [3]: no syncytia were observed
proliferative responses of PBMCs (in words) (PBMC): A significant response was not detected
time to CTL induction in the popliteal lymph node ([1]; mouse, in vivo): ≤ 7 days
inhibition of HIV-1 infection of primary human T cells (HIV-1 [4]): 92%
HIV-1 infection of MT-4 cells, reverse transcriptase activity in culture medium (HIV-1 [6]): inhibits HIV-1 infection
% Specific Lysis (3A9; mouse, in vivo): 7.0% and 0.6% and 0% and 10.0% and 8.0%
HIV-1 infection of CEM cells, reverse transcriptase activity in culture supernatant (HIV-1 [7]): inhibits HIV-1 infection

RTPTGLGQSLYTTRS [Peptide D38]
RT ACTIVITY (CPM) (HIV-1 IIIB): 5823 CPM

RVTLGPGRVWYTTGE [Peptide D29]
RT ACTIVITY (CPM) (HIV-1 IIIB): 13009 CPM

SIHIGPGRAFYATGD [Peptide D30]
RT ACTIVITY (CPM) (HIV-1 IIIB): 3443 CPM

SIRIGPGKVFTAKGG [Peptide D31]
RT ACTIVITY (CPM) (HIV-1 IIIB): 11877 CPM

SISIGPGRAFFATTD [Peptide D34]
RT ACTIVITY (CPM) (HIV-1 IIIB): 11142 CPM

SITKGPGRVIYATGQ [Peptide D28]
RT ACTIVITY (CPM) (HIV-1 IIIB): 7634 CPM

SIYIGPGRAFHTTGR [Peptide D32]
RT ACTIVITY (CPM) (HIV-1 IIIB): 8002 CPM

SLKPCVKLTPLC [Peptide 112]
anti-peptide antibody titers (in words) (BALB/c mice): high antibody titers

SLSIGPGRAPRTREI [Peptide D25]
RT ACTIVITY (CPM) (HIV-1 IIIB): 4342 CPM

STPIGLGQALYTTRG [Peptide D35]
RT ACTIVITY (CPM) (HIV-1 IIIB): 5242 CPM

STPIGLGQALYTTRI [Peptide D37]
RT ACTIVITY (CPM) (HIV-1 IIIB): 7027 CPM

SVITQACSKVSFE [Peptide 113]
T cell response directed against both the corresponding peptide and native gp160 (PLN cells): strong T cell response
T-cell Proliferation Responses, Rhesus Monkey #7 (PBMC): 1+
T-cell Proliferation Responses, Rhesus Monkey #23 (PBMC): 2+
T-cell Proliferation Responses, Rhesus Monkey #283C (PBMC): 2+
proliferative responses of PBMCs (in words) (PBMC): weak responses
anti-peptide antibody titers (in words) (BALB/c mice): very low to negligible; also recorded: do not stimulate anti-peptide antibody production

TKGPGRVIYATGQ [Peptide T13Q]
syncytia [3]: no syncytia were observed
inhibition of HIV-1 infection of primary human T cells (HIV-1 [4]; [8]): > 60%

TYQRTRALVTG [Peptide B106, reference compound]
% Specific Lysis (3A9; effector cells: No Treatment, target 3A9 (H-2^k), E:T 80:1): 0%
% Specific Lysis (3A9; effector cells: No Treatment, target 3A9 (H-2^k), E:T 160:1): 0%

VQCTHGIRPVVSTQ [Peptide 117]
anti-peptide antibody titers (in words) (BALB/c mice): high antibody titers

VYYGVPVWKEA [Peptide 104]
T cell response directed against both the corresponding peptide and native gp160 (PLN cells): strong T cell response
T-cell Proliferation Responses, Rhesus Monkey #7 (PBMC): 4+
T-cell Proliferation Responses, Rhesus Monkey #23 (PBMC): 2+
T-cell Proliferation Responses, Rhesus Monkey #283C (PBMC): 4+
proliferative responses of PBMCs (in words) (PBMC): good proliferative responses
anti-peptide antibody titers (in words) (BALB/c mice): very low to negligible; also recorded: do not stimulate anti-peptide antibody production

YLRDQQLLGIWGC [Peptide 61]
T cell response directed against both the corresponding peptide and native gp160 (PLN cells): strong T cell response
T-cell Proliferation Responses, Rhesus Monkey #23 (PBMC): 3+
T-cell Proliferation Responses, Rhesus Monkey #283C (PBMC): 2+
proliferative responses of PBMCs (in words) (PBMC): Two of the three rhesus monkey-derived PBMC preparations also showed good proliferative responses
anti-peptide antibody titers (in words) (BALB/c mice): very low to negligible; also recorded: do not stimulate anti-peptide antibody production

YNKRKRIHIGPGRAFYTTKNNIGC [Peptide D23]
RT ACTIVITY (CPM) (HIV-1 IIIB): 94 CPM
